Laboratory results: the supplement of paper PMC6045584
± gives the standard deviation of the averaged measurements.

Key:
[1] = compound: COc1ccc(-c2cc3c(C)nc(N)nc3n([C@H]3CC[C@H](OCCO)CC3)c2=O)cn1; test: surviving fraction relative to DMSO-only wells; higher = less growth inhibition; conditions: exposure time: 5 days
Outline: (§1)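 Viability values are CellTiter-Glo luminescence readings, given as surviving fraction against the median of DMSO-only wells. The readings were taken after 10 minutes at room temperature, following five days of continuous exposure to inhibitors at 0.5, 1, 5, 10, 50, 100, 500 and 1000 nM that began 24 hours after log-phase tumour cell lines were seeded at 250–500 cells per well in 384-well plates. Every line was screened three times and kept only if replicate Pearson r >0.7 and median Z' >0.3.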

[2] = compound: Cc1ccc(NC(=O)c2ccc(CN3CCN(C)CC3)cc2)cc1Nc1nccc(-c2cccnc2)n1 [IMATINIB]; test: as above; conditions: exposure time: 5 days
Outline: as §1

Row | Test System | surviving fraction ([1]; 0.5 nM) | surviving fraction ([1]; 1 nM) | surviving fraction ([1]; 5 nM) | surviving fraction ([1]; 10 nM) | surviving fraction ([1]; 50 nM) | surviving fraction ([1]; 100 nM) | surviving fraction ([1]; 500 nM) | surviving fraction ([1]; 1000 nM) | surviving fraction ([2]; 0.5 nM) | surviving fraction ([2]; 5 nM) | surviving fraction ([2]; 10 nM) | surviving fraction ([2]; 100 nM) | surviving fraction ([2]; 500 nM) | surviving fraction ([2]; 1 nM) | surviving fraction ([2]; 50 nM) | surviving fraction ([2]; 1000 nM)
1 | HOS BONE | 0.992 ± 0.0078 | 0.983 ± 0.019 | 0.986 ± 0.012 | 0.906 ± 0.014 | 0.781 ± 0.021 | 0.618 ± 0.016 | 0.231 ± 0.012 | 0.178 ± 0.0092 | 1.03 ± 0.02 | 1.04 ± 0.028 | 1.047 ± 0.0078 | 1.06 ± 0.023 | 1.03 ± 0.037 |  |  | 
2 | HOSMNG BONE | 1.03 ± 0.058 | 1.01 ± 0.087 | 1.04 ± 0.037 | 0.947 ± 0.034 | 0.944 ± 0.082 | 0.81 ± 0.033 | 0.348 ± 0.0079 | 0.186 ± 0.0096 | 1.04 ± 0.12 | 0.994 ± 0.085 | 1 ± 0.019 | 1.14 ± 0.073 |  | 1.01 ± 0.067 | 1.09 ± 0.1 | 1.07 ± 0.14
3 | HSSYII SYNOVIAL | 0.926 ± 0.034 | 0.941 ± 0.07 | 0.821 ± 0.045 | 0.789 ± 0.036 | 0.502 ± 0.006 | 0.329 ± 0.014 | 0.12 ± 0.0097 | 0.093 ± 0.0052 | 1 ± 0.1 |  | 1.04 ± 0.049 | 0.998 ± 0.033 | 0.971 ± 0.063 | 0.967 ± 0.026 | 0.966 ± 0.021 | 0.948 ± 0.024
4 | HT1080 SOFT TISSUE | 1.02 ± 0.038 | 0.974 ± 0.029 | 1.001 ± 0.0067 | 0.955 ± 0.1 | 0.829 ± 0.012 | 0.661 ± 0.031 | 0.255 ± 0.015 | 0.161 ± 0.0072 | 1.045 ± 0.01 | 1.1 ± 0.048 | 1.07 ± 0.021 | 1.03 ± 0.033 |  | 1.074 ± 0.0023 | 1.04 ± 0.036 | 
5 | HU09 BONE | 0.936 ± 0.058 | 0.941 ± 0.057 | 0.779 ± 0.044 | 0.793 ± 0.078 | 0.346 ± 0.042 | 0.168 ± 0.015 | 0.0383 ± 0.0015 | 0.0237 ± 0.0015 | 1.05 ± 0.19 | 1.16 ± 0.038 |  | 0.89 ± 0.0044 | 0.554 ± 0.027 | 1.01 ± 0.034 | 0.878 ± 0.084 | 0.483 ± 0.026
6 | HUO3N1 BONE | 0.986 ± 0.036 | 0.981 ± 0.039 | 0.924 ± 0.061 | 0.855 ± 0.028 | 0.614 ± 0.013 | 0.494 ± 0.026 | 0.242 ± 0.012 | 0.188 ± 0.003 | 1.06 ± 0.039 | 1.072 ± 0.0071 | 1.04 ± 0.027 |  | 0.892 ± 0.038 | 0.9677 ± 0.0058 |  | 0.878 ± 0.062
7 | JIMT1 BREAST | 0.983 ± 0.03 | 0.961 ± 0.023 | 0.968 ± 0.011 | 0.937 ± 0.024 | 0.857 ± 0.021 | 0.606 ± 0.022 | 0.19 ± 0.0061 | 0.114 ± 0.013 | 1.04 ± 0.047 | 1.03 ± 0.029 | 0.99 ± 0.028 | 1.08 ± 0.039 | 1.03 ± 0.056 | 1 ± 0.051 |  | 1.03 ± 0.045
8 | JURKAT HAEMATOPOIETIC AND LYMPHOID TISSUE | 1.07 ± 0.026 | 1.09 ± 0.024 | 1.04 ± 0.021 | 1 ± 0.022 | 0.741 ± 0.017 | 0.57 ± 0.013 | 0.213 ± 0.011 | 0.135 ± 0.0042 | 1.05 ± 0.031 | 0.986 ± 0.034 |  | 1.02 ± 0.038 | 1.03 ± 0.039 | 1.07 ± 0.031 | 0.994 ± 0.032 | 1.04 ± 0.041
9 | KPD BONE | 0.973 ± 0.033 | 0.95 ± 0.056 | 0.908 ± 0.032 | 0.852 ± 0.032 | 0.486 ± 0.028 | 0.313 ± 0.019 | 0.0613 ± 0.0067 | 0.038 ± 0.0046 | 1.077 ± 0.008 | 1.11 ± 0.043 | 1.1 ± 0.082 | 1.05 ± 0.097 |  | 0.983 ± 0.068 | 1.16 ± 0.067 | 0.99 ± 0.023
